Assay [1] has as its system NMDA-evoked currents in hippocampal neurons. The conditions noted are these: cited from earlier work.
The test system of assay [2] is NMDA-evoked currents in cortical neurons. The following applies: cited from earlier work.
Assay [3] deals with GluN1a–GluN2B. The following applies: cited from earlier work.
Assay [4] deals with NMDAr containing the GluN2B subunit. The following applies: cited from earlier work.
Assay [5] has as its system NMDA-evoked currents in cultured rat embryonic hippocampal neurons (NMDAr).
For assay [6], the system named is NMDA/GluN2B. The following applies: Ro 25-6981 1 µM; ref [40]; cited from earlier work.
Assay [7] relates to voltage-dependent Na^+ channels. The conditions noted are these: 1 µM; ref [40]; cited from earlier work.
Assay [8] deals with voltage-dependent Ca^+2 channels. The following applies: 1 µM; ref [40]; cited from earlier work.

Where no end group is shown, it is not given here.

In the case of “conantokin-G: 17 amino acid peptide (MW 2264.2 Da), cone snail toxin selective for NMDAr containing GluN2B (GEEELQENQELIREKSN; ends and bridges not checked; UniProt P07231 81-97, looked up)”, the IC50 in assay [1] was 480 nM. Further, in assay [2], the IC50 was 480 nM; the “recovery of NMDA-evoked current after washout” value is “about 10%”; the “reversibility” value was “very slow and incomplete reversibility”. Further, in assay [3], the IC50 is 100 nM and the “recovery of NMDA-evoked currents after washout” value is on record as “about 80%”. Besides, the “selectivity for NMDAr containing the GluN2B subunit” value in assay [4] was “selective for NMDAr containing the GluN2B subunit”.
Take `C[C@@H](CN1CCC(Cc2ccccc2)CC1)[C@@H](O)c1ccc(O)cc1` [Ro 25-6981]: in assay [5], the “block of NMDA-evoked currents, percent (GluN2B blocker)” value is on record as 70%; the reversibility of block result is listed as “no reversibility following 4 min of washout”; the use-dependence of block entry is on record as “use-dependent”. For the same molecule, the “1 µM relative to the concentration producing 50% inhibition of NMDA/GluN2B-mediated currents” value in assay [6] was 100 fold. Moreover, the “effect on voltage-dependent Na^+ channels” value in assay [7] is “minimal or no effects”. Moreover, in assay [8], the “effect on voltage-dependent Ca^+2 channels” value is given as “minimal or no effects”.
As for `C[C@]12N[C@H](Cc3ccccc31)c1ccccc12` [(+)MK-801, Dizocilpine], in assay [5], the “block of NMDA-evoked currents” value is “blocked the NMDA-evoked currents”, the reversibility of block result was “irreversible” and the use-dependence of block entry is “increased with exposures to the blocker”.

Usually IC50 stands for the midpoint of a concentration-inhibition curve.

Values taken from publication PMC5433008 (BMC Neuroscience, 2017).
